Measurements: patent USRE50082E1, “(5,6-dihydro)pyrimido[4,5-e]indolizines” (NETHERLANDS TRANSLATIONAL RESEARCH CENTER B.V., priority 2014, dated 2024)
pIC50: −log10 of the molar value.

test system: MOLT-4 cancer cell line; assay: Cell proliferation assay, MOLT-4 cancer cell line (ATPlite); format: cell-based; settings: Homo sapiens, MOLT-4; 72 hours incubation, ATPlite 1Step; read-out: IC50 MOLT-4 cell proliferation;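 also: luminescence read-out, percent growth versus compound-free DMSO wells as maximum growth, start-of-incubation signal separating growth from cell death, IC50 from logistic curve fit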
Experimental: 5 μL of compound solution was added and the plates were incubated for an additional 72 hours after which 25 μL of ATPlite 1Step™ (PerkinElmer, Groningen, The Netherlands) solution was added to each well. Luminescence was recorded on an Envision multimode reader. The cell signal at the start of incubation was recorded separately in order to distinguish between cell population growth and cell death. In addition, maximum growth was determined by incubation of a duplicate without compound in the presence of 0.4% DMSO. Percentage growth was used as the main y-axis signal. IC50s were fitted by non-linear regression using IDBS XLfit™5 using a 4-parameter logistic curve, yielding a maximum signal, minimum signal, hill-parameter and IC50.

Row | SMILES | pIC50
1 | CCCCS(=O)(=O)N1CCN(c2ccc(Nc3ncc4c(n3)-n3ccc(C(=O)Nc5c(C)cccc5C)c3CC4)c(OC)c2)CC1 [Example 113, 2-[4-(4-Butylsulfonylpiperazin-1-yl)-2-methoxy-anilino]-N-(2,6-dimethylphenyl)-5,6-dihydropyrimido[4,5-e]indolizine-7-carboxamide] | > 7.30
2 | CCc1cccc(CC)c1NC(=O)c1ccn2c1CCc1cnc(Nc3ccc(N4CCN(C)CC4)cc3OC)nc1-2 [Example 20, N-(2,6-diethylphenyl)-2-[2-methoxy-4-(4-methylpiperazin-1-yl)anilino]-5,6-dihydropyrimido[4,5-e]indolizine-7-carboxamide] | 6.82 to 7.30
3 | CCOc1cc(C(=O)NC2CCN(C)CC2)ccc1Nc1ncc2c(n1)-n1ccc(C(=O)Nc3c(C)cccc3CC)c1CC2 [Example 14, 2-[2-Ethoxy-4-[(1-methyl-4-piperidyl)carbamoyl]anilino]-N-(2-ethyl-6-methyl-phenyl)-5,6-dihydropyrimido[4,5-e]indolizine-7-carboxamide] | 6.82 to 7.30
4 | COc1cc(C(=O)N2CCOCC2)ccc1Nc1ncc2c(n1)-n1ccc(C(=O)Nc3c(C)cccc3C)c1CC2 [Example 122, N-(2,6-dimethylphenyl)-2-[2-methoxy-4-(morpholine-4-carbonyl)anilino]-5,6-dihydropyrimido[4,5-e]indolizine-7-carboxamide] | > 7.30
5 | COc1cc(C(=O)N[C@@H]2CCNC[C@@H]2F)ccc1Nc1ncc2c(n1)-n1ccc(C(=O)Nc3c(C)cccc3C)c1CC2 [Example 118, N-(2,6-dimethylphenyl)-2-[4-[[(3S,4R)-3-fluoro-4-piperidyl]carbamoyl]-2-methoxy-anilino]-5,6-dihydropyrimido[4,5-e]indolizine-7-carboxamide] | > 7.30
6 | COc1cc(N2CCN(C)CC2)ccc1Nc1ncc2c(n1)-n1ccc(C(=O)Nc3c(Cl)cccc3Cl)c1CC2 [Example 61, N-(2,6-dichlorophenyl)-2-[2-methoxy-4-(4-methylpiperazin-1-yl)anilino]-5,6-dihydropyrimido[4,5-e]indolizine-7-carboxamide] | > 7.30
7 | Cc1cccc(C)c1NC(=O)c1ccn2c1CCc1cnc(Nc3ccc(N4CCN(C)CC4)cc3OC(F)F)nc1-2 [Example 144, N-(2,6-dimethyl-phenyl)-2-[2-(difluoromethoxy)-4-(4-methylpiperazin-1-yl)anilino]-5,6-dihydropyrimido[4,5-e]indolizine-7-carboxamide] | > 7.30
8 | COc1cc(N2CCN(C)CC2)ccc1Nc1ncc2c(n1)-n1ccc(C(=O)Nc3c(C)cccc3Br)c1CC2 [Example 73, N-(2-bromo-6-methyl-phenyl)-2-[2-methoxy-4-(4-methylpiperazin-1-yl)anilino]-5,6-dihydropyrimido[4,5-e]indolizine-7-carboxamide] | > 7.30
9 | CCc1n[nH]c(CC)c1NC(=O)c1ccn2c1ccc1cnc(Nc3ccc(N4CCNCC4)cc3OC)nc12 [Example 97, N-(3,5-diethyl-1H-pyrazol-4-yl)-2-(2-methoxy-4-piperazin-1-yl-anilino)pyrimido[4,5-e]indolizine-7-carboxamide] | > 7.30
10 | COc1cc(N2CCNCC2)ccc1Nc1ncc2c(n1)-n1ccc(C(=O)Nc3c(C)nn(CC(C)(C)O)c3C)c1CC2 [Example 98, N-[1-(2-hydroxy-2-methyl-propyl)-3,5-dimethyl-pyrazol-4-yl]-2-(2-methoxy-4-piperazin-1-yl-anilino)-5,6-dihydropyrimido[4,5-e]indolizine-7-carboxamide] | 6.82 to 7.30
11 | COc1cc(C(=O)NC2CCN(C)CC2)ccc1Nc1ncc2c(n1)-n1ccc(C(=O)Nc3c(C)cccc3Cl)c1CC2 [Example 35, N-(2-chloro-6-methyl-phenyl)-2-[2-methoxy-4-[(1-methyl-4-piperidyl)carbamoyl]anilino]-5,6-dihydropyrimido[4,5-e]indolizine-7-carboxamide] | > 7.30
12 | COc1cc(N2CCN(C)CC2)ccc1Nc1ncc2c(n1)-n1ccc(C(=O)Nc3c(C)nn(CC4CCO4)c3C)c1CC2 (stereo not drawn) [Example 140, N-[3,5-dimethyl-1-(oxetan-2-ylmethyl)pyrazol-4-yl]-2-[2-methoxy-4-(4-methylpiperazin-1-yl)anilino]-5,6-dihydropyrimido[4,5-e]indolizine-7-carboxamide] | 6.82 to 7.30
13 | COc1cc(N2CCNCC2)ccc1Nc1ncc2c(n1)-n1ccc(C(=O)Nc3c(C)cccc3Cl)c1CC2 [Example 75, N-(2-chloro-6-methyl-phenyl)-2-(2-methoxy-4-piperazin-1-yl-anilino)-5,6-dihydropyrimido[4,5-e]indolizine-7-carboxamide] | > 7.30
14 | CCNC(=O)N1CCN(c2ccc(Nc3ncc4c(n3)-n3ccc(C(=O)Nc5c(C)cccc5C)c3CC4)c(OC)c2)CC1 [Example 114, N-(2,6-dimethylphenyl)-2-[4-[4-(ethylcarbamoyl)piperazin-1-yl]-2-methoxy-anilino]-5,6-dihydropyrimido[4,5-e]indolizine-7-carboxamide] | > 7.30
15 | COCCn1nc(C)c(NC(=O)c2ccn3c2CCc2cnc(Nc4ccc(N5CCNCC5)cc4OC)nc2-3)c1C [Example 16, N-[1-(2-methoxyethyl)-3,5-dimethyl-pyrazol-4-yl]-2-(2-methoxy-4-piperazin-1-yl-anilino)-5,6-dihydropyrimido[4,5-e]indolizine-7-carboxamide] | 6.82 to 7.30
16 | CCc1cccc(CC)c1NC(=O)c1ccn2c1CCc1cnc(Nc3ccc(N4CCNCC4)cc3C)nc1-2 [Example 80, N-(2,6-diethylphenyl)-2-(2-methyl-4-piperazin-1-yl-anilino)-5,6-dihydropyrimido[4,5-e]indolizine-7-carboxamide] | > 7.30
17 | COc1cc(N2CCOCC2)ccc1Nc1ncc2c(n1)-n1ccc(C(=O)Nc3c(C)cccc3Br)c1CC2 [Example 3, N-(2-bromo-6-methyl-phenyl)-2-(2-methoxy-4-morpholino-anilino)-5,6-dihydropyrimido[4,5-e]indolizine-7-carboxamide] | 6.82 to 7.30
18 | COCCn1nc(C)c(NC(=O)c2ccn3c2CCc2cnc(Nc4ccc(OC5CNC5)cc4OC)nc2-3)c1C [Example 91, 2-[4-(Azetidin-3-yloxy)-2-methoxy-anilino]-N-[1-(2-methoxyethyl)-3,5-dimethyl-pyrazol-4-yl]-5,6-dihydropyrimido[4,5-e]indolizine-7-carboxamide] | 6.82 to 7.30
19 | COc1cc(C(=O)NC2CCOCC2)ccc1Nc1ncc2c(n1)-n1ccc(C(=O)Nc3c(C)cccc3C)c1CC2 [Example 103, N-(2,6-dimethylphenyl)-2-[2-methoxy-4-(tetrahydropyran-4-ylcarbamoyl)anilino]-5,6-dihydropyrimido[4,5-e]indolizine-7-carboxamide] | > 7.30
20 | Cc1cccc(Cl)c1NC(=O)c1ccn2c1CCc1cnc(Nc3ccc(N4CCN(C)CC4)cc3OC(F)F)nc1-2 [Example 86, N-(2-chloro-6-methyl-phenyl)-2-[2-(difluoromethoxy)-4-(4-methylpiperazin-1-yl)anilino]-5,6-dihydropyrimido[4,5-e]indolizine-7-carboxamide] | > 7.30
21 | COc1cc(C(=O)NC2CC2)ccc1Nc1ncc2c(n1)-n1ccc(C(=O)Nc3c(C)cccc3C)c1CC2 [Example 126, 2-[4-(cyclopropylcarbamoyl)-2-methoxy-anilino]-N-(2,6-dimethylphenyl)-5,6-dihydropyrimido[4,5-e]indolizine-7-carboxamide] | > 7.30
22 | Cc1cc(N2CCN(C)CC2)ccc1Nc1ncc2c(n1)-n1ccc(C(=O)Nc3c(C)cccc3C)c1CC2 [Example 63, N-(2,6-dimethylphenyl)-2-[2-methyl-4-(4-methylpiperazin-1-yl)anilino]-5,6-dihydropyrimido[4,5-e]indolizine-7-carboxamide] | > 7.30
23 | CCc1cccc(CC)c1NC(=O)c1ccn2c1CCc1cnc(Nc3ccc(N4CCNCC4)cc3OC)nc1-2 [Example 76, N-(2,6-diethylphenyl)-2-(2-methoxy-4-piperazin-1-yl-anilino)-5,6-dihydropyrimido[4,5-e]indolizine-7-carboxamide] | > 7.30
24 | CCc1cccc(CC)c1NC(=O)c1ccn2c1CCc1cnc(Nc3ccc(OCCOC)cc3OC)nc1-2 [Example 136, N-(2,6-diethylphenyl)-2-[2-methoxy-4-(2-methoxyethoxy)anilino]-5,6-dihydropyrimido[4,5-e]indolizine-7-carboxamide] | 6.82 to 7.30
25 | COc1cc(OC2CCN(C)CC2)ccc1Nc1ncc2c(n1)-n1ccc(C(=O)Nc3c(C)n[nH]c3C)c1CC2 [Example 15, N-(3,5-dimethyl-1H-pyrazol-4-yl)-2-[2-methoxy-4-[(1-methyl-4-piperidyl)oxy]anilino]-5,6-dihydropyrimido[4,5-e]indolizine-7-carboxamide] | 6.82 to 7.30
26 | CCc1cccc(CC)c1NC(=O)c1ccn2c1CCc1cnc(Nc3cc(Cl)c(N4CCN(C)CC4)cc3OC)nc1-2 [Example 102, 2-[5-Chloro-2-methoxy-4-(4-methylpiperazin-1-yl)anilino]-N-(2,6-diethylphenyl)-5,6-dihydropyrimido[4,5-e]indolizine-7-carboxamide] | 6.82 to 7.30
27 | COc1cc(C(=O)NCCN2CCCCC2)ccc1Nc1ncc2c(n1)-n1ccc(C(=O)Nc3c(C)cccc3C)c1CC2 [Example 128, N-(2,6-dimethylphenyl)-2-[2-methoxy-4-[2-(1-piperidyl)ethylcarbamoyl]anilino]-5,6-dihydropyrimido[4,5-e]indolizine-7-carboxamide] | 6.82 to 7.30
28 | CCc1cccc(CC)c1NC(=O)c1ccn2c1CCc1cnc(Nc3ccc(-c4cnn(C)c4)cc3OC)nc1-2 [Example 38, N-(2,6-diethylphenyl)-2-[2-methoxy-4-(1-methylpyrazol-4-yl)anilino]-5,6-dihydropyrimido[4,5-e]indolizine-7-carboxamide] | 6.82 to 7.30
29 | CCc1cccc(C)c1NC(=O)c1ccn2c1CCc1cnc(Nc3ccc(N4CCNCC4)cc3C)nc1-2 [Example 82, N-(2-ethyl-6-methyl-phenyl)-2-(2-methyl-4-piperazin-1-yl-anilino)-5,6-dihydropyrimido[4,5-e]indolizine-7-carboxamide] | > 7.30
30 | CCc1cccc(CC)c1NC(=O)c1ccn2c1ccc1cnc(Nc3ccc(N4CCNCC4)cc3OC)nc12 [Example 77, N-(2,6-diethylphenyl)-2-(2-methoxy-4-piperazin-1-yl-anilino)pyrimido[4,5-e]indolizine-7-carboxamide] | 6.82 to 7.30
